The source of these data is ChEMBL document CHEMBL1128052, “Further structure-activity-relationship studies on A/C/D-ring analogs of complement inhibitor K-76” (Bioorg Med Chem Lett, 1995).

Test [1] in a line: Intrinsic Lytic Activity required to cause 50% hemolysis in the absence of complement; Not bioassayed. The test is classed as functional, Ovis aries.
The species entered for another test is Homo sapiens. The test can be described thus: Inhibitory concentration required to inhibit human complement induced hemolysis by 50%. The test is classed as functional, organism-based.
Test [2] in a line: Intrinsic Lytic Activity required to cause 50% hemolysis in the absence of complement. The test is classed as functional, Ovis aries.

Each structure is given as a SMILES string.

`CC1=CCC([C@]2(C)Cc3c(O)ccc(C(=O)O)c3O2)CC1` (stereo partly specified): in test [1], the EC50 result is “Not bioassayed”. The compound further yielded an IC50 in the test filed under Homo sapiens of 2400 µM.

Take `COc1ccc(C(=O)O)c2c1C[C@](C)(C1CC=C(C)CC1)O2` (stereo partly specified): the half-maximal effective concentration (EC50) entry in test [1] was “Not bioassayed”. The midpoint of inhibition in the test listed under Homo sapiens, the IC50, lay at 680 µM.

On to `CC1=CCC([C@]2(C)Cc3c(Oc4ccccc4)cc(C(=O)O)cc3O2)CC1` (stereo partly specified), for which, in test [2], the EC50 is < 200 µM. Further, in the test listed under Homo sapiens, the IC50 is > 824 µM.

As to `COc1cc(C(=O)O)cc2c1C[C@@](C)(C1CC=C(C)CC1)O2` (stereo partly specified), in test [2], it took 660 µM to reach a half-maximal effect (EC50). For the same compound, the IC50 in the test listed under Homo sapiens is > 1000 µM.

With `CC1=CCC([C@]2(C)Cc3c(O)cc(C(=O)O)cc3O2)CC1` (stereo partly specified), the EC50 in test [2] is > 1040 µM. Also, the IC50 in the test listed under Homo sapiens stood at 730 µM.

As to `COc1ccc(C(=O)O)c2c1C[C@@](C)(C1CC=C(C)CC1)O2` (stereo partly specified), in test [1], the EC50 entry was “Not bioassayed”. Inhibition in the test listed under Homo sapiens was half-maximal at 380 µM (IC50).

With `COc1cc(C=O)cc2c1C[C@@](C)(C1CC=C(C)CC1)O2` (stereo partly specified), the EC50 in test [2] was > 1050 µM. The IC50 in the test filed under Homo sapiens is > 1050 µM.

For `C[C@@H]1CCC2C(C)(C)[C@H](O)[C@H](O)C[C@]2(C)[C@@]12Cc1c(O)cc(C(=O)O)c(C=O)c1O2` (stereo partly specified), the EC50 in test [2] is > 680 µM. This compound also yielded an IC50 in the test listed under Homo sapiens of 680 µM.

As to `COc1cc(C(=O)O)cc2c1CC(C)(C1CC[C@](C)(O)[C@H](O)C1)O2` (stereo partly specified), the EC50 in test [2] was > 892 µM. Also, the IC50 in the test listed under Homo sapiens is > 892 µM.

Consider `COc1ccc(C(=O)O)c2c1C[C@](C)(C1CC[C@](C)(O)[C@H](O)C1)O2` (stereo partly specified), for which the EC50 result in test [1] was “Not bioassayed”. The compound further showed a concentration for half-maximal inhibition (IC50) in the test filed under Homo sapiens of 1600 µM.

Consider `CC1=CCC([C@@]2(C)Cc3c(O)ccc(C(=O)O)c3O2)CC1` (stereo partly specified), for which the EC50 entry in test [1] is listed as “Not bioassayed”. 2100 µM corresponded to half-maximal inhibition in the test filed under Homo sapiens (IC50).

Regarding `CC1=CCC([C@]2(C)Cc3c(Oc4ccccc4)cc(C=O)cc3O2)CC1` (stereo partly specified), the EC50 in test [2] is > 862 µM. In addition, the 50% inhibitory concentration (IC50) in the test listed under Homo sapiens was > 862 µM.

Take `CC1=CCC([C@]2(C)Cc3c(O)cc(C=O)cc3O2)CC1` (stereo partly specified): the EC50 in test [2] was < 280 µM. In addition, in the test filed under Homo sapiens, the IC50 was determined as 515 µM.

Usually EC50 stands for the concentration giving half of the maximal effect. Broadly, the IC50 is the midpoint of a concentration-inhibition curve. Read a high IC50 as lower potency.
